Laboratory results published in patent US20020165141A1, “Methods for promoting dendritic cell proliferation or differentiation” (priority 2000, published 2002).
Entries after “also recorded” stand apart in the source; their conditions may differ.

Assays:
[1] = Tests of AII fragments for effectiveness (test not described); conditions: test not specified
dendritic cells = test: Effect of angiotensin peptides on dendritic cell proliferation (cells per well by phase contrast microscopy); type: cell-based, C57B1/6 mice; conditions: cytokine(s) added to the cultures alone
Description: Isolation of Dendritic Cells from Mice Treated with flt3 Ligand: Spleens were enriched in vivo with dendritic cells by stimulation with flt3 ligand (Marakovsky et al, 1996). C57B1/6 mice were subcutaneously injected with 4×10^6 flt3 ligand-secreting B16 melanoma cells prepared by transfection of murine flt3 ligand cDNA with the retroviral vector MFG. Spleen cells were harvested after the tumors reached 2-3 cm in diameter, at which time the spleens were 5-10 fold enlarged over those of untreated mice.
The spleens were harvested and the cells were dispersed through sterile screens. A single cell suspension of whole splenocytes was resuspended in a high-density BSA solution (1 ml/spleen) containing 10.6 g BSA, 18.6 ml PBS, 2.9 ml 1 N NaOH, and 6.5 ml water. After overlaying 2 ml of ice-cold RPMI, the splenocyte/BSA solution was centrifuged for 15 minutes at 9500 g. About 5×10^7 dendritic cells/spleen were recovered from the interface and resuspended in RPMI. […]
Culture of Dendritic Cells: Twenty four hours after isolation, these cells were counted and placed in culture in RPMI 1640 supplemented with 10% fetal calf serum, 2 mM 1 glutamine, 1 mM sodium pyruvate, 50 μM mercaptoethanol, 100 U/ml penicillin and 100 μg/ml streptomycin at a concentration of 1×10^3 cells/well of a 96 well plate. One third of the wells were counted at random to ensure even distribution of the cells to the wells. […]

Molecule: His-Pro-Phe (HPF) [AII(6-8)]
- effectiveness [1]: not to be effective

Molecule: Tyr-Ile-His-Pro-Phe (YIHPF) [AII(4-8)]
- effectiveness [1]: not to be effective; also recorded: ineffective

B1: GM-CSF: murine recombinant granulocyte macrophage-colony stimulating factor, 50 ng/ml (protein, UniProt P01587 18-141, looked up)
Granulocyte-macrophage …: APTRSPITVTRPWKHVEAIKEALNLLDDMPVTLNEEVEVVSNEFSFKKLTCVQTRLKIFEQGLRGNFTKLKGALNMTASYYQTYCPPTPETDCETQVTTYADFIDSLKTFLTDIPFECKKPGQK
- number of cells per well / cellular proliferation, cytokine without angiotensin peptide (dendritic cells): did not increase cellular proliferation

B2: IL-6: murine recombinant Interleukin 6 (IL-6), 25 ng/ml (protein, UniProt P08505 25-211, looked up)
Interleukin-6: FPTSQVRRGDFTEDTTPNRPVYTTSQVGGLITHVLWEIVEMRKELCNGNSDCMNNDDALAENNLKLPEIQRNDGCYQTGYNQEICLLKISSGLLEYHSYLEYMKNNLKDNKKDKARVLQRDTETLIHIFNQEVKDLHKIVLPTPISNALLTDKLESQKEWLRTKTIQFILKSLEEFLKVTLRSTRQT
- number of cells per well / cellular proliferation, cytokine without angiotensin peptide (dendritic cells): did not affect the number of cells per well
